Reference: ChEMBL document CHEMBL4190406, “Discovery of Potent, Selective, and Peripherally Restricted Pan-Trk Kinase Inhibitors for the Treatment of Pain” (J Med Chem, 2018)

Assays:
in vitro [1] = conditions: dog, MDCK
[2] = Oral bioavailability in rat; format: ADME, organism-based; conditions: in vivo
in vitro [3] = conditions: human, hepatocytes
in vitro [4] = conditions: human, liver microsomes
[5] = Clearance in iv dosed rat administered as 4 hrs infusion; format: ADME, organism-based; conditions: in vivo
[6] = Ratio of unbound brain to plasma concentration in iv dosed rat administered as 4 hrs infusion by equilibrium dialysis method; format: ADME, organism-based; conditions: brain and plasma, read-out: K(p,uu,brain)
physchem = conditions: buffer, pH 7.4
[7] = Drug metabolism in human hepatocytes assessed as CYP450-mediated metabolite formation at 1 uM up to 240 mins by LC-MS/MS analysis; format: ADME, cell-based; conditions: 4 h

Cn1cnc(-c2ccc(OC3CCN(C(=O)Cc4ccc(OC(F)(F)F)cc4)CC3)c(C(N)=O)c2)c1
Papp A→B (in vitro [1]): 10 ×10⁻⁶ cm/s
bioavailability [2]: 45%
hepatocyte CLint at 4 h, 1 µM (in vitro [3]): 8 µL/min/1e6 cells
microsomal CLint at 1 h, 1 µM (in vitro [4]): < 8 µL/min/mg
clearance [5]: 38 mL/min/kg
Kp uu at 4 h [6]: 0.0065
logD (physchem): 2.9
Drug metabolism [7]: Metabolite_Detected
